The test system of data set [1] is Pseudomonas aeruginosa (NBRC 13275). Nature of the data set: Transmission electron microscope observation. It counts as cell-based. The following applies: 37° C., 2 hours, complex 1,000 μg/mL, mixture 500 + 500 μg/mL; for morphological changes (TEM): lysozyme alone 500 μg/mL, chitosan alone 500 μg/mL. The protocol:
(§1) As a control, physiological saline (0.9% NaCl solution) was used.
(§2) Then, centrifugation was performed, and the resultant pellets were washed with physiological saline (0.9% NaCl), fixed in a 1.0% buffered osmium tetroxide buffer solution in a 0.1 M phosphate buffered saline for 1 hour, embedded in 2.0% agar, dehydrated with ethanol, and then embedded in Epon 812 (TAAB Laboratories Equipment Ltd.). Ultrathin sections of 70 nm were collected on a copper grid, double-stained with uranyl acetate and lead citrate, and observed with a transmission electron microscope (H-7100) at 75 kV.

For data set [2], the system named is Acinetobacter baumannii. The data set is described as follows: Transmission electron microscope observation. Type of data set: cell-based. The following applies: 37° C., 2 hours, complex 1,000 μg/mL, mixture 500 + 500 μg/mL; for morphological changes (TEM): lysozyme alone 500 μg/mL, chitosan alone 500 μg/mL. The protocol:
as §1, §2

In data set [3] the test system is Acinetobacter (JCM 6841). The data set is described as follows: Confocal laser scanning microscope observation (LIVE/DEAD BacLight). It counts as cell-based, Acinetobacter baumannii. The note with it: final 1,000 μg/mL, 37° C., 2 hours. On the procedure: (§3) As a control, physiological saline (0.9% NaCl solution) was used. To 500 μL of these solutions, 500 μL of Pseudomonas aeruginosa bacterial suspension and Acinetobacter bacterial suspension prepared in the same manner as in Experimental Example 1 above was added, and incubated at 37° C. for 2 hours. Then, 3 μL of LIVE/DEAD BacLight reagent (a mixture of SYTO 9 and propidium iodide (PI), which stain nucleic acids) was added and further incubated for 15 minutes at room temperature. SYTO 9 with green fluorescence labels all bacteria, while PI with red fluorescence permeates only bacteria with damaged plasma membranes, and the presence of both dyes attenuates the fluorescence of SYTO 9.

Data set [4] deals with Acinetobacter baumannii (JCM 6841). Nature of the data set: Growth suppression effect test (Experimental Example 3). Type of data set: cell-based. The following applies: 2,000 μg/mL in TSB, 37° C., 6 hours, versus control. The protocol:
(§4) As a control, TSB medium without additives was used. The Acinetobacter bacterial suspension or Pseudomonas aeruginosa bacterial suspension was prepared in the same way as in Experimental Example 1 described above. […] After 6 hours, 0.1 mL of each solution was added to a solid medium (Mueller-Hinton medium) and allowed to grow overnight, and then the bacteria count was measured. The bacterial suspensions were tested on each solution 18 times for Pseudomonas aeruginosa (NBRC 13275) and 8 times each for Pseudomonas aeruginosa (PAO1) and Acinetobacter by duplicate (mean of triplicate measurements and SEM (standard error of sample mean)) in independent experiments.

The test system of data set [5] is Acinetobacter baumannii. The data set is described as follows: Drug resistance acquisition test (MIC after repeated subculture). The note with it: after 10 subcultures at ½ MIC in LB medium. It counts as cell-based. On the procedure: (§5) The MIC was defined as the minimum concentration of the reagent without visual turbidity observed after 18 hours and 24 hours of evaluation. […] The bacteria that were not subcultured was evaluated as a control (CTL in FIGS. 10A and 10B). MIC measurements were repeated 10 times to evaluate the development of drug resistance in these bacteria.

Data set [6] relates to Pseudomonas aeruginosa (NBRC 13275 and PAO 1). The description is as above. It counts as cell-based. The following applies: after 10 subcultures at ½ MIC in LB medium. On the procedure:
as §5

Data set [7] has as its system Pseudomonas aeruginosa (NBRC 13275). The data set is described as follows: Bacteria-killing test at various concentrations (Experimental Example 2). Type of data set: cell-based. The following applies: 200 μg/mL, 2,000 μg/mL and 10,000 μg/mL in physiological saline. On the procedure:
(§6) As a control, physiological saline (0.9% NaCl solution) was used. The Acinetobacter bacterial suspension or Pseudomonas aeruginosa bacterial suspension was prepared as follows. Pseudomonas aeruginosa (NBRC 13275 or PAO1) or Acinetobacter baumannii (JCM 6841) was grown overnight at 37° C. in trypsin soy broth (TSB), centrifuged during the logarithmic growth phase, and collected, and the bacteria were resuspended in physiological saline (0.9% NaCl), with such a final suspension concentration that the absorbance was 1.0 (10^8 to 10^9 CFU/mL) at 600 nm.
(§7) At 0 minutes, 30 minutes, 60 minutes, and 120 minutes after the start of incubation, 0.1 mL of each solution was added to a solid medium (Mueller-Hinton medium) for overnight growth, and then the bacteria count was measured. The test of the bacterial suspensions against each solution was performed three times and measured.

Data set [8] shares this test system. The data set is described as follows: Confocal laser scanning microscope observation (LIVE/DEAD BacLight). The note with it: final 1,000 μg/mL, 37° C., 2 hours. It counts as cell-based. On the procedure: as §3
The test system is the same in data set [9]. Nature of the data set: Cell membrane integrity test (absorbance at 260 nm). It counts as cell-based. The text has this:
(§8) The measurement of absorbance at 260 nm (A260nm) was used to estimate the amount of nucleic acid released from the cytoplasm, thereby evaluating the integrity of the cell membrane. When a bacterial cell membrane is compromised by an antibacterial agent, intracellular components are released into the extracellular space. The measurement of absorbance at 260 nm is used to estimate the amount of DNA and RNA released from the cytoplasm.
(§9) Specifically, evaluation on whether substances with absorption at 260 nm were released from the bacteria was performed by measuring the absorption at 260 nm with ND-1000 manufactured by Thermo Fisher Scientific. […] As a control, a 0.5% NaCl solution was used. The Pseudomonas aeruginosa bacterial suspension and Acinetobacter bacterial suspension prepared in the same manner as in Experimental Example 1 were resuspended in a 0.5% NaCl solution, and prepared with such a final suspension concentration that the absorbance at 420 nm was 0.7. […] At 20 minutes, 40 minutes, 60 minutes, 80 minutes, 100 minutes, and 120 minutes after the start of incubation, each solution was subjected to a 0.22 μm syringe filter to remove bacteria, and the absorbance at 260 nm (A260nm) was measured. The results for absorbance, expressed as the average of triplicate measurements and SEM (standard error of sample mean), are shown in FIGS. 4A and 4B.

Data set [10] concerns Acinetobacter baumannii (JCM 6841). The data set is described as follows: Bacteria-killing test (Experimental Example 1). It counts as cell-based. The note with it: 2,000 μg/mL in physiological saline, 37° C., at 60 minutes and 120 minutes, versus control. The protocol:
The bacteria-killing property of the lysozyme-chitosan complex (LYZOX (registered trademark)) against Acinetobacter and the like was measured in comparison with a mixture of lysozyme and chitosan and the like.
as §6, §7

For data set [11], the system named is Acinetobacter (JCM 6841). Nature of the data set: ONPG assay (intracellular membrane permeability test). It counts as cell-based, Acinetobacter baumannii. The following applies: for absorbance 420 nm (ONPG), time course: up to 100 minutes. The protocol: (§10) Intracellular membrane permeability was determined by ONPG assay (o-nitrophenyl-β-D-galactopyranoside (ONPG) assay). When the cell membrane is damaged, intracellular enzymes, including β-galactosidase, leak out of the cell. ONPG is normally colorless, but is hydrolyzed by β-galactosidase to galactose and o-nitrophenol, resulting in an increase in absorbance at 420 nm. The intracellular membrane permeability of bacteria can be determined by measuring the activity of cytosolic β-galactosidase released from the bacteria using ONPG as a substrate.
(§11) Specifically, evaluation on whether substances with absorption at 420 nm were released was performed by measuring the absorption at 420 nm with the spectrophotometer ASV11D. […] As a control, a 0.5% NaCl solution was used. The Pseudomonas aeruginosa bacterial suspension and Acinetobacter bacterial suspension prepared in the same manner as in Experimental Example 1 were resuspended in a 0.5% NaCl solution, and prepared with such a final suspension concentration that the absorbance at 420 nm was 1.2. […] The increase in absorbance at 420 nm (A420nm) was evaluated by performing triplicate measurements.

The subject of data set [12] is Pseudomonas aeruginosa (NBRC 13275). The description is as above. It counts as cell-based. The following applies: final 200, 2,000 and 5,000 μg/mL. On the procedure: as §10, §11
The test system is the same in data set [13]. The data set is described as follows: Growth suppression effect test at various concentrations (Experimental Example 4). Type of data set: cell-based. The note with it: 2,000 μg/mL, 5,000 μg/mL and 10,000 μg/mL in TSB, 6 hours. On the procedure:
as §4

Data set [14] concerns Acinetobacter (JCM 6841). The data set is described as follows: Cell membrane integrity test (absorbance at 260 nm). It counts as cell-based, Acinetobacter baumannii.
Excerpt: as §8, §9

Where [15] appears, read: final 2,000, 5,000 and 10,000 μg/mL, 0.5% NaCl, 37° C.
[16] abbreviates: various concentrations, 20 to 120 minutes.

Method for rabbit erythrocytes: Each resulting mixed solution was incubated at 37° C. for 1 hour, and centrifuged at 1500 rpm for 10 minutes, and the supernatant was collected. […] Each absorbance (OD) was measured at 545 nm to calculate the hemolytic rate by using the following formula. The absorbance value at 545 nm was expressed as the average and SEM (standard error of the sample mean) of triplicate measurements.

Turning to “lysozyme alone: lysozyme (manufactured by Nippon Biocon Ltd.), enzyme that hydrolyzes mucopolysaccharides [reference compound]”, the “morphological changes (TEM)” value (in data set [1]; in the data set with Acinetobacter baumannii [2]) was “formed spheroplasts” each time.
Take “lysozyme-chitosan complex: Commercial LYZOX powder: chicken-derived lysozyme (about 14,000 Da) and about 5,000 Da water-soluble chitosan, mass ratio 1:1, bound by Maillard reaction”: the “aggregation of bacterial cells (CLSM)” value is on record as “less aggregation of bacterial cells than Pseudomonas aeruginosa” in the data set on Acinetobacter (JCM 6841) [3] and “aggregated to form clusters” in [8]. Also, the “bacterial cells with damaged membranes (red fluorescence, CLSM)” value (in the data set on Acinetobacter (JCM 6841) [3]; in [8]) was “more bacterial cells with damaged membranes than in the corresponding control” in each case. The “bacteria count (growth suppression)” value in [4] is given as “significantly reduced the bacteria count than the control”. Further, the “morphological changes (TEM)” value (in data set [1]; in the data set on Acinetobacter baumannii [2]) was “spherical cells with outer membrane vesicles” each time. In addition, the “cell walls and intracellular contents (TEM)” value in data set [1] is “bacterial cell walls were disrupted and the intracellular contents were released from the cells”; with Acinetobacter baumannii [2], “bacterial cell walls were disrupted and the intracellular contents were released from the cells”. The “acquisition of drug resistance (change of MIC)” value (in the data set on Acinetobacter baumannii [5]; in data set [6]) was “did not acquire resistance” throughout. The “bacteria-killing activity (bacteria count)” value in data set [7] is recorded as “concentration-dependent bacteria-killing activity”. The “absorbance 260 nm, dependence on concentration” value (in data set [9] (setting [15]); in the data set with Acinetobacter (JCM 6841) [14] (setting [15])) was “increased in a concentration-dependent manner” each time. The “absorbance 260 nm, time course” value in data set [9] (setting [16]) was “increased rapidly in the first 20 minutes, and then the rate of increase decreased until 120 minutes”; in the data set on Acinetobacter (JCM 6841) [14] (setting [16]) it was “increased rapidly in the first 20 minutes, and then the rate of increase decreased until 120 minutes”. In addition, in data set [10], the “bacteria count (bacteria-killing)” value is reported as “significantly reduced the bacteria count than the control”. Also, the “absorbance 420 nm (ONPG), time course” value in the data set on Acinetobacter (JCM 6841) [11] (200 μg/mL) is “increased in the first 10 minutes and remained constant thereafter”; with Acinetobacter (JCM 6841) [11] (2,000 μg/mL and 5,000 μg/mL), “increased rapidly at first and then slowly until 100 minutes”. In the data set on Acinetobacter (JCM 6841) [11] (ONPG assay), the “effect on the inner membrane” value is listed as “disrupt the inner membrane of Acinetobacter”. Moreover, the “absorbance 420 nm (ONPG), dependence on concentration” value in the data set on Acinetobacter (JCM 6841) [11] (final 200, 2,000 and 5,000 μg/mL) is “increased in a concentration-dependent manner”; in data set [12], “increased in a concentration-dependent manner”. In data set [13], the “growth suppression effect (bacteria count)” value was “concentration-dependent growth suppression effect”. In the data set with rabbit erythrocytes, the “hemolysis of rabbit erythrocytes” value is given as “almost did not hemolyze”. Further, in the data set with Acinetobacter (JCM 6841) [14] (final 2,000, 5,000 and 10,000 μg/mL, 20 to 120 minutes), the “absorbance 260 nm compared to the control” value is “higher absorbance in Acinetobacter compared to the control”.
As for “poly-β1→4-glucosamine [chitosan alone, reference compound]”, the “morphological changes (TEM)” value (in data set [1]; in the data set with Acinetobacter baumannii [2]) was “formed numerous vesicles on their surfaces” throughout.
